Data reported in the supplement of paper PMC10307832.

Legend:
Experiment in all cases: relative viability (nuclei count vs DMSO), 5 days (fraction); higher = more cells survive
Palbociclib + Lapatinib = compound: CC(=O)c1c(C)c2cnc(Nc3ccc(N4CCNCC4)cn3)nc2n(C2CCCC2)c1=O [Palbociclib] + CS(=O)(=O)CCNCc1ccc(-c2ccc3ncnc(Nc4ccc(OCc5cccc(F)c5)c(Cl)c4)c3c2)o1 [Lapatinib] (partner 2 µM)
In short: (§1)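 Relative viability divides the nuclei count in treated wells by that in vehicle wells. Lung cancer cell lines were seeded in 1536-well plates, dosed by pin tool the next day, and fixed and stained after 5 days in one step with final 0.05% Triton X-100, 1% formaldehyde and 1 ug/ml Hoechst. Dosing was a single drug or a fixed anchor-drug dose plus five library-drug doses (not always all listed) in √10 steps, and values are medians of duplicate plates imaged at 4×.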

Palbociclib + Decitabine = compound: CC(=O)c1c(C)c2cnc(Nc3ccc(N4CCNCC4)cn3)nc2n(C2CCCC2)c1=O [Palbociclib] + Nc1ncn([C@H]2C[C@H](O)[C@@H](CO)O2)c(=O)n1 [Decitabine] (partner 2 µM)
In short: as §1

Palbociclib + Tozasertib = compound: CC(=O)c1c(C)c2cnc(Nc3ccc(N4CCNCC4)cn3)nc2n(C2CCCC2)c1=O [Palbociclib] + Cc1cc(Nc2cc(N3CCN(C)CC3)nc(Sc3ccc(NC(=O)C4CC4)cc3)n2)n[nH]1 [Tozasertib] (partner 0.1 µM)
In short: as §1

Palbociclib + Linsitinib = compound: CC(=O)c1c(C)c2cnc(Nc3ccc(N4CCNCC4)cn3)nc2n(C2CCCC2)c1=O [Palbociclib] + C[C@]1(O)C[C@@H](c2nc(-c3ccc4ccc(-c5ccccc5)nc4c3)c3c(N)nccn32)C1 [Linsitinib] (partner 1 µM)
In short: as §1

Cell Line | relative viability (Palbociclib + Lapatinib; first compound 0.01 µM) | relative viability (Palbociclib + Lapatinib; first compound 0.03162 µM) | relative viability (Palbociclib + Lapatinib; first compound 0.1 µM) | relative viability (Palbociclib + Lapatinib; first compound 0.3162 µM) | relative viability (Palbociclib + Lapatinib; first compound 1 µM) | relative viability (Palbociclib + Decitabine; first compound 0.01 µM) | relative viability (Palbociclib + Decitabine; first compound 0.03162 µM) | relative viability (Palbociclib + Decitabine; first compound 0.1 µM) | relative viability (Palbociclib + Decitabine; first compound 0.3162 µM) | relative viability (Palbociclib + Decitabine; first compound 1 µM) | relative viability (Palbociclib + Tozasertib; first compound 0.01 µM) | relative viability (Palbociclib + Tozasertib; first compound 0.1 µM) | relative viability (Palbociclib + Tozasertib; first compound 0.3162 µM) | relative viability (Palbociclib + Tozasertib; first compound 1 µM) | relative viability (Palbociclib + Linsitinib; first compound 0.01 µM) | relative viability (Palbociclib + Linsitinib; first compound 0.03162 µM) | relative viability (Palbociclib + Linsitinib; first compound 0.1 µM) | relative viability (Palbociclib + Linsitinib; first compound 0.3162 µM) | relative viability (Palbociclib + Linsitinib; first compound 1 µM) | relative viability (Palbociclib + Tozasertib; first compound 0.03162 µM)
NCI-H1793 | 0.68 | 0.619 | 0.462 | 0.602 | 0.355 | 0.559 | 0.613 | 0.611 | 0.46 | 0.342 | 0.358 | 0.318 | 0.339 | 0.276 | 0.722 | 0.681 | 0.647 | 0.583 | 0.518 | 
A-427 | 0.965 | 0.735 | 1.03 | 0.895 | 0.648 | 0.6 | 0.581 | 0.489 | 0.539 | 0.519 | 0.203 | 0.224 | 0.227 | 0.209 | 1.15 | 1.08 | 1.01 | 0.942 | 0.806 | 0.205
NCI-H358 | 0.341 | 0.337 | 0.214 | 0.244 | 0.217 | 0.209 | 0.203 | 0.206 | 0.186 | 0.143 | 0.0961 | 0.096 | 0.0791 | 0.0679 | 0.673 | 0.559 | 0.354 | 0.247 | 0.229 | 0.087
HOP-62 | 0.77 |  | 0.871 | 0.825 | 0.79 | 0.179 |  | 0.237 | 0.207 | 0.257 | 0.368 | 0.344 | 0.347 | 0.338 | 0.995 |  | 1.01 | 0.908 | 0.692 | 
NCI-H322M | 0.637 | 0.563 | 0.513 | 0.482 | 0.387 | 0.691 | 0.654 | 0.674 | 0.654 | 0.521 | 0.471 | 0.403 | 0.412 | 0.343 | 0.892 | 0.836 | 0.718 | 0.78 | 0.638 | 0.448
H3255 | 0.263 | 0.246 | 0.2 | 0.231 | 0.211 | 0.733 | 0.514 | 0.522 | 0.525 | 0.384 | 0.702 | 0.522 | 0.591 | 0.309 | 1.16 | 0.873 | 0.844 | 0.775 | 0.514 | 0.613
NCI-H1666 | 0.644 | 0.559 | 0.419 | 0.474 | 0.384 | 0.725 | 0.67 | 0.721 | 0.682 | 0.565 | 0.642 | 0.539 | 0.47 | 0.458 | 0.868 | 0.751 | 0.634 | 0.619 | 0.37 | 0.585
NCI-H661 | 0.491 | 0.437 | 0.477 | 0.345 | 0.333 | 0.547 | 0.484 | 0.476 | 0.461 | 0.39 | 0.332 | 0.324 | 0.302 | 0.3 | 0.547 | 0.529 | 0.46 | 0.421 | 0.351 | 0.346
LU99A | 0.936 | 0.539 | 0.922 | 0.853 | 0.577 | 0.926 |  | 0.863 | 0.813 | 0.684 | 0.314 | 0.254 | 0.308 | 0.25 | 0.587 | 0.46 | 0.454 | 0.355 | 0.327 | 0.268
HCC-15 | 0.934 |  | 0.75 | 0.796 | 0.642 | 0.662 |  | 0.535 | 0.523 | 0.498 | 0.454 | 0.38 | 0.372 | 0.343 | 0.966 |  | 0.832 | 0.755 | 0.726 | 
NCI-H1355 | 0.949 |  | 0.901 | 0.793 | 0.523 | 0.348 | 0.379 | 0.352 | 0.351 | 0.342 | 0.613 | 0.583 | 0.556 | 0.454 | 0.807 |  | 0.754 | 0.687 | 0.549 | 0.521
LK-2 | 1.09 |  | 0.642 | 1.23 | 0.842 | 0.299 | 0.213 | 0.333 | 0.324 | 0.283 | 0.167 | 0.15 | 0.196 | 0.167 | 0.521 | 0.486 | 0.468 | 0.434 | 0.608 | 
201T | 1.06 | 0.844 | 0.928 | 0.94 | 0.692 | 0.827 | 0.836 | 0.836 | 0.834 | 0.665 | 0.984 | 0.914 | 0.797 | 0.614 | 1.01 | 0.97 | 0.901 | 0.938 | 0.716 | 0.906
LCLC-97TM1 | 0.891 |  | 0.894 | 0.697 | 0.304 | 0.23 |  | 0.231 | 0.239 | 0.198 | 0.218 | 0.202 | 0.216 | 0.169 | 0.185 |  | 0.167 | 0.165 | 0.158 | 0.206
BEN | 0.754 | 0.582 | 0.518 | 0.558 | 0.342 | 0.692 | 0.521 | 0.596 | 0.68 | 0.422 | 0.563 | 0.541 | 0.608 | 0.697 | 1.14 | 0.759 | 0.618 | 0.747 | 0.497 | 0.429
NCI-H520 | 0.92 | 0.556 | 0.695 | 0.572 | 0.243 | 0.491 | 0.417 | 0.423 | 0.395 | 0.29 | 0.445 | 0.238 | 0.329 | 0.249 | 1.06 | 0.721 | 0.661 | 0.67 | 0.392 | 0.424
HCC-78 | 0.914 | 0.313 | 0.513 | 0.685 | 0.198 | 0.651 | 0.629 | 0.773 | 0.694 | 0.429 | 0.451 | 0.319 | 0.354 | 0.334 | 0.46 | 0.329 | 0.302 | 0.39 | 0.273 | 0.383
